pIC50: −log10 of the molar value. Blank lines part the entries; values can stand above or below the compound they belong to.
How the values were obtained:
[1] = molecular target: T1, NACHT, LRR and PYD domains-containing protein 3 (Homo sapiens, UniProt Q96P20); experiment: Inhibition of NLRP3 inflammasome activation in PMA differentiated human THP1 cells assessed as reduction in IL-1beta level at 10 uM preincubated for 30 mins followed by addition of MSU and meaured after 6 hrs by ELISA method relative to control
[2] = molecular target: T1, NACHT, LRR and PYD domains-containing protein 3; experiment: Inhibition of NLRP3 inflammasome activation in PMA differentiated human THP1 cells assessed as reduction in IL-1beta level preincubated for 30 mins followed by addition of MSU and meaured after 6 hrs by ELISA method relative to control
Peroxiredoxin-1 = molecular target: T2, Peroxiredoxin-1 (Homo sapiens, UniProt Q06830); experiment: Inhibition of PRDX1 in human PMA-differentiated LPS-stimulated THP1 cells assessed as reduction in NLRP3 inflammasome activation preincubated for 1 hr followed by addition of ATP and mesured after 1 hr by ELISA
T2 sequence (Q06830 whole entry): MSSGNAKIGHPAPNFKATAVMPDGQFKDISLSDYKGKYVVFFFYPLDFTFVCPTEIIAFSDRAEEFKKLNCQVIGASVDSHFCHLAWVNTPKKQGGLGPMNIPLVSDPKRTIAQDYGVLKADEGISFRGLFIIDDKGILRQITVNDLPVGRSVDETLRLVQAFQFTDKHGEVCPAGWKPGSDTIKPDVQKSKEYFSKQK

[3] = molecular target: NACHT, LRR and PYD domains-containing protein 3 (Mus musculus) (UniProt Q8R4B8); experiment: Inhibition of NLRP3 inflammasome activation in LPS-primed mouse J774A.1 cells assessed as reduction in IL-1beta level at 10 uM preincubated for 1 hr followed by addition of ATP and measured after 30 mins by ELISA method relative to control
[4] = Cmax in mouse at 1000 mg, po administered once daily for 8 days; assay type: ADME, organism-based; parameters: dose 1000 mg, route oral; details: in vivo
[5] = molecular target: T3, NACHT, LRR and PYD domains-containing protein 3 (Mus musculus, UniProt Q8R4B8); experiment: Inhibition of NLRP3 inflammasome activation in LPS-primed mouse J774A.1 cells assessed as reduction in IL-1beta level preincubated for 30 mins followed by addition of nigericin and measured after 40 mins by ELISA
[6] = molecular target: T3, NACHT, LRR and PYD domains-containing protein 3; experiment: Inhibition of NLRP3 inflammasome activation in LPS-primed C57BL/6 mouse bone marrow derived macrophages preincubated for 15 mins followed by addition of ATP and measured after 1 hr by ELISA
[7] = molecular target: T3, NACHT, LRR and PYD domains-containing protein 3; experiment: Inhibition of NLRP3 inflammasome activation in LPS-primed mouse NG5 cells assessed as reduction in IL-1beta level incubated for 15followed by addition of ATP by ELISA method; assay type: cell-based
THP-1 [8] = experiment: Inhibition of pyroptosis in PMA-differentiated and LPSprimed human THP1 cells assessed as LDH activity at 10 uM preincubated for 1 hr followed by addition of ATP and measured after 1 hr by CytoTox 96 Non-Radioactive Cytotoxicity Assay relative to control; assay type: functional
[9] = molecular target: T1, NACHT, LRR and PYD domains-containing protein 3; experiment: Inhibition of recombinant human NLRP3 ATPase assessed as reduction in ADP formation preincubated for 10 mins followed by ATP addition and measured after 40 mins by ADP-Glo assay
THP-1 [10] = experiment: Inhibition of pyroptosis in PMA-differentiated and LPS-primed human THP1 cells assessed as LDH activity preincubated for 1 hr followed by addition of ATP and measured after 1 hr by CytoTox 96 Non-Radioactive Cytotoxicity Assay; assay type: functional, cell-based
[11] = Half life in C57BL/6 mouse plasma at 3 mg/kg, iv or 20 mg/kg, po; assay type: ADME, organism-based; details: in vivo
[12] = molecular target: T1, NACHT, LRR and PYD domains-containing protein 3; experiment: Inhibition of NLRP3 inflammasome activation in LPS-primed human THP1 cells assessed as reduction in IL-1beta level preincubated for 1 hr followed by addition of ATP and measured after 1 hr by ELISA method
[13] = molecular target: T1, NACHT, LRR and PYD domains-containing protein 3; experiment: Inhibition of NLRP3 inflammasome activation in LPS-stimulated human THP1 cells assessed as reduction in IL-1beta level at 10 uM preincubated for 1 hr followed by addition of ATP and measured after 1 hr by ELISA method relative to control
[14] = molecular target: T3, NACHT, LRR and PYD domains-containing protein 3; experiment: Inhibition of NLRP3 inflammasome activation in mouse J774A.1 cells assessed as reduction in IL-1beta level preincubated for 2 hrs followed by LPS-stimulation and further incubated for 5.5 hrs and subsequently ATP addition and measured after 30 mins by ELISA method; assay type: cell-based
[15] = molecular target: T3, NACHT, LRR and PYD domains-containing protein 3; experiment: Inhibition of NLRP3 inflammasome activation in LPS-primed mouse bone marrow derived macrophages assessed as reduction in IL-1beta level preincubated for 30 mins followed by addition of ATP and measured after 1 hr by ELISA method
[16] = molecular target: T1, NACHT, LRR and PYD domains-containing protein 3; experiment: Inhibition of NLRP3 inflammasome activation in LPS-primed human THP1 cells assessed as reduction in IL-1beta level at 20 uM preincubated for 1 hr followed by addition of ATP and measured after 3 hrs by ELISA method relative to control
[17] = molecular target: T3, NACHT, LRR and PYD domains-containing protein 3; experiment: Inhibition of NLRP3 inflammasome activation in LPS-primed mouse J774A.1 cells assessed as reduction in IL-1beta level preincubated for 1 hr followed by addition of ATP and measured after 30 mins by ELISA method
[18] = molecular target: T3, NACHT, LRR and PYD domains-containing protein 3; experiment: Inhibition of NLRP3 inflammasome activation in LPS-primed mouse bone marrow derived macrophages incubated for 1 hr followed by addition of ATP and measured after 1 hr by immunoblotting analysis

T1 sequence (Q96P20 whole entry, the tested form may be a part): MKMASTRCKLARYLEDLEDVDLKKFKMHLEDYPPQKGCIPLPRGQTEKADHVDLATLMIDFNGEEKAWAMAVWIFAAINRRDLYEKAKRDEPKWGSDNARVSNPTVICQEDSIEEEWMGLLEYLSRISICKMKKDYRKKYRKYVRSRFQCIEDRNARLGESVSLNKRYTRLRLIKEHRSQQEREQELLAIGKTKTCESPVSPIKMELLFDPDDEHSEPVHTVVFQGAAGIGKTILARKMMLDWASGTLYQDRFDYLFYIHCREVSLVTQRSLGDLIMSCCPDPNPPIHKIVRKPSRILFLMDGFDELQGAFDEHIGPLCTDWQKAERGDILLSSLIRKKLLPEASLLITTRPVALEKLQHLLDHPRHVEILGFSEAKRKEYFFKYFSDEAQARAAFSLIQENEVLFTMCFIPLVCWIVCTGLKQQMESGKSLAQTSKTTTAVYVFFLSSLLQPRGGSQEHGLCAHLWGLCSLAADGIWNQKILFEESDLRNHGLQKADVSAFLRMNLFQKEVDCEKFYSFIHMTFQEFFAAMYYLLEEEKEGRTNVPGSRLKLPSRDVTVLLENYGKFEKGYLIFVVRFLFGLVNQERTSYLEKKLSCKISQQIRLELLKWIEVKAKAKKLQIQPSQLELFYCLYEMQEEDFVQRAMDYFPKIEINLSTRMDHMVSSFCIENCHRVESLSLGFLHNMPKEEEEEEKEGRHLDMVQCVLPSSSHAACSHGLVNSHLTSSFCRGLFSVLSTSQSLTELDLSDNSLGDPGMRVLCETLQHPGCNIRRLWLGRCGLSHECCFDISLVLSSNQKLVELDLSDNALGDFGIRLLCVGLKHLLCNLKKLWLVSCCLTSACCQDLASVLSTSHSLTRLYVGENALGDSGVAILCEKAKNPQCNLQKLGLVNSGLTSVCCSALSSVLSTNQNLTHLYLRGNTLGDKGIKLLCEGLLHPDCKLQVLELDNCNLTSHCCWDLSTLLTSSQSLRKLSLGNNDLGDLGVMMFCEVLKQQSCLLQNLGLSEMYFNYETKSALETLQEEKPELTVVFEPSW
T3 sequence (Q8R4B8 whole entry, the tested form may be a part): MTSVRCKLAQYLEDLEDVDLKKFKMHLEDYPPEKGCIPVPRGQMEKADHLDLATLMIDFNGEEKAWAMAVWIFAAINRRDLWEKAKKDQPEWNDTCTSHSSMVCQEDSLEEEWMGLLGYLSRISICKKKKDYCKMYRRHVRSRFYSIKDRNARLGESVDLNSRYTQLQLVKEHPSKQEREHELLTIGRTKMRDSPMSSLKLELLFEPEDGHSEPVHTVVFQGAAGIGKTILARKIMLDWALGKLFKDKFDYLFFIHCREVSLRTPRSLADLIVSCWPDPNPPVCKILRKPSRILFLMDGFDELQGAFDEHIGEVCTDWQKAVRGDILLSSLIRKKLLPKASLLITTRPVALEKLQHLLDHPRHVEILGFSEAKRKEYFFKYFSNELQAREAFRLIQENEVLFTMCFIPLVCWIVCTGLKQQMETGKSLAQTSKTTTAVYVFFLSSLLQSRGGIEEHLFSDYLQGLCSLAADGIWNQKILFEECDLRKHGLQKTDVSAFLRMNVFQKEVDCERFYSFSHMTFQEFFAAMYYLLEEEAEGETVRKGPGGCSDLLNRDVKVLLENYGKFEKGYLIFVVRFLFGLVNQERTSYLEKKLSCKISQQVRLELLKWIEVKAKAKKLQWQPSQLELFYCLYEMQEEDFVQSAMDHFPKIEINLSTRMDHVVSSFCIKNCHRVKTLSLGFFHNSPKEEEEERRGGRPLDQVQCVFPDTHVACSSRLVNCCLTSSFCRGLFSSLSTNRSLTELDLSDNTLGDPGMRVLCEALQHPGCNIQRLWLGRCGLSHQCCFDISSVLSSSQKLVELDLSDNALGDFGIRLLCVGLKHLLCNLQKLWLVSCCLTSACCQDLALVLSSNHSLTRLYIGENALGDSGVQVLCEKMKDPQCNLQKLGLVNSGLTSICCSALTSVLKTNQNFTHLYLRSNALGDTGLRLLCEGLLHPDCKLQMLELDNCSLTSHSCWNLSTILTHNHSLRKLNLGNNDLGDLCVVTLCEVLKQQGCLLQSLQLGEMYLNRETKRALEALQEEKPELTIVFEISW
NACHT, LRR and PYD domains-containing protein 3 (Mus musculus), sequence (Q8R4B8 whole entry, the tested form may be a part): as above

inhibition [1]: 42.9%
pIC50 [2]: 5.00
Compound: O=c1cc(-c2ccc(O)cc2)oc2cc(O)cc(O)c12 [APIGENIN]

pIC50 (Peroxiredoxin-1): 6.02
Compound: O=C1/C(=C/c2ccccn2)CNC/C1=C\c1ccccn1

Cmax [4]: 311 µM
pIC50 [5]: 9.00
Compound: CS(=O)(=O)CCC#N [DAPANSUTRILE]

pIC50 [14]: 5.07
Compound: COc1ccc(Cl)cc1C(=O)NCCc1ccc(S(=O)(=O)NO)cc1

inhibition [3]: 28.8%
Compound: COc1ccc(-c2nc(O)c3ccccc3n2)cc1

inhibition [1]: 49.5%
Compound: O=c1cc(-c2ccc(Cl)c(Cl)c2)oc2ccccc12

pIC50 [18]: 5.89
Compound: CC1CC(=O)c2s/c(=N\C3CCCCC3)oc2C1 (centres undefined)

pIC50 [17]: 5.30
Compound: COc1ccc2c(c1)C(=O)N(c1ccccc1)C2=O

Further lines, the compound ahead of its results:

Compound: O=c1[nH]c(-c2ccc(C(F)(F)F)cc2)nc2ccccc12
inhibition [3]: 21.3%

Compound: Cc1cccc(Nc2ccccc2C(=O)O)c1C [MEFENAMIC ACID]
pIC50 [6]: 4.60

Compound: Cc1ccc(S(=O)(=O)/C=C/C#N)cc1
pIC50 [7]: 4.92

Compound: C=C(Cc1ccccc1Cl)C(=O)NCCc1ccc(S(N)(=O)=O)cc1
inhibition at 10 µM (THP-1 [8]): 45.8%
pIC50 [9]: 4.13
pIC50 (THP-1 [10]): 4.63

Compound: CC(C)(O)c1coc(S(=O)(=O)NC(=O)Nc2c3c(cc4c2CCC4)CCC3)c1
t1/2 [11]: 3.27 h

Compound: CCn1c(-c2ccccc2)nc2cc(C)ccc21
pIC50 [12]: 5.00

Compound: c1cc2[nH]c(-c3cscn3)nc2cn1
inhibition [13]: 30%

Compound: CCC1=C(C)CN(C(=O)NCCc2ccc(S(=O)(=O)NC(=O)Nc3c4c(cc5c3CCC5)CCC4)cc2)C1=O
pIC50 [15]: 7.38

Compound: CCCCC/C=C/C(=O)CCc1ccc(O)c(OC)c1
inhibition [16]: 100%

Compound: CCCCCCC/C=C/C(=O)CCc1ccc(O)c(OC)c1
inhibition [16]: 60.3%

Compound: O=c1[nH]c(-c2ccc([N+](=O)[O-])cc2)nc2ccccc12
pIC50 [17]: 5.30

Compound: O=[N+]([O-])c1ccc2[nH]c(-c3cscn3)nc2c1
inhibition [13]: 30%

Reference: ChEMBL document CHEMBL4321841, “Development of small molecule inhibitors targeting NLRP3 inflammasome pathway for inflammatory diseases” (Eur J Med Chem, 2020)
